Consider 12 compounds from patent US9738610B2, “Indazole derivatives and uses thereof” (Whitehead Institute for Biomedical Research, priority 2012, dated 2017).

For one data set, the system named is C. albicans CaCi-8. Briefly: microbe, parasite or virus in culture. Type of data set: cell-based, Candida albicans. The note with it: in the presence of fluconazole; read-out: Target Potency (μM) Mean ± S.E.M CaCi-8^a IC50. The protocol: This subset was re-subjected to the primary assay and was also tested concurrently in two secondary assays. Secondary assay 1 measured chemosensitization of the more resistant CaCi-8 strain. Secondary assay 2 eliminated anything with inherently antifungal activity. […] A final assay (secondary assay 3) was incorporated to discard any compound displaying toxicity to mammalian fibroblasts. […] This screening campaign is also illustrated in FIG. 3B.
Those that inhibited growth in the resistant strain were also tested for toxicity against Candida in the absence of fluconazole and for toxicity against mammalian cells using a fluorescence reporter assay. The positive control for screening in the Candida and mammalian cell assays was the Hsp90 inhibitor geldanamycin (acting in concert with fluconazole; FIG. 4). Compounds that passed these four hurdles were binned through use of a Saccharomyces assay to determine whether the mechanism of action might be through the Hsp90 pathway, the calcineurin pathway, or an uncategorized mechanism.

Another data set is described as follows: Plasma protein binding. The note with it: % bound in human plasma.
For another data set, the system named is C. albicans CaCi-2. Briefly: Secondary single-agent (no-fluconazole) activity assay. The data set is classed as cell-based, Candida albicans. To be noted: in the absence of fluconazole; read-out: Target Potency (μM) Mean ± S.E.M CaCi-2^b IC50. The protocol:
Clear, flat-bottom, black, 384-well plates were obtained from Corning. […] Pen/Strep was obtained from Gibco and prepared 100× in PBS. Fluconazole was obtained from Sigma and prepared in 2 mg/ml stock solution in PBS. Alamar Blue was obtained from Biosource International (Catalog No. DAL1100). Phosphate buffered solution (PBS) without calcium and magnesium was obtained from Cellgro.
Fungal inoculum was prepared as follows: 500 μl of yeast was inoculated from cryopreserved stock into a 250-ml shaker flask containing 30 ml growth medium and shaken overnight (16 hours) at 30° C. The culture was spun down, and the broth was poured off and washed with RPMI medium. The culture was spun down again, and the broth was poured off and resuspended in RPMI medium. The OD 600 of 1 ml of fungal culture in a cuvette was read using a standard optical density reader with growth medium as a background blank. The desired volume of fungal inoculum was diluted to starting OD of the fungal inoculum of 0.00015 A600.
Pen/Strep was added to the media to a final 1% concentration. A Combi NL (Thermo) was used to dispense 20 μl/well of assay media into all wells. Geldanamycin (1.5 mM) and fluconazole (0.2 mg/ml) were mixed for the positive control. Then, 80 nl of positive control solution was dispensed into the positive control wells using Thermo Combi nL for a final concentration of 3 μM geldanamycin and 8 μg/ml fluconazole. Then, 100 nl of test compound were pinned from the compound plates into assay plates using a CyBi-Well pin tool. A further 20 μl/well of RPMI synthetic defined medium culture was dispensed into 384-well, black plates. Fungal suspension (20 μl/well) was dispensed into all wells. The plates were incubated in a humidified (90% humidity) Liconic incubator at 37° C. without agitation for 48 hours. Alamar Blue Reagent was diluted 1:40 in Ca/Mg-free PBS. To all plates, 6.4 μl/well of the diluted Alamar Blue was added to the plates to a final dilution factor of 1:200. The plates were incubated for 2 hours at room temperature. Next, RFU of wells was read on a standard plate reader as a measure of relative fungal growth.

A further data set can be described thus: Plasma stability. The note with it: % remaining in human plasma after a 5-hour incubation.

Regarding `COC(=O)Cn1nc(-c2ccc(C)cc2)c2ccccc21` [Compound 46856255], the values for the half-maximal inhibitory concentration (IC50) in the data set on C. albicans CaCi-8 and with C. albicans CaCi-2 were 11 µM and more than 26 µM, respectively. In “Plasma protein binding”, the “Plasma Protein Binding” value came to 96%. Further, the “Plasma Stability” value in “Plasma stability” came to 4.1%.
`COCCn1nc(-c2ccccc2)c2ccccc21` [Compound 49835825]: the IC50 in the data set with C. albicans CaCi-8 and with C. albicans CaCi-2 was more than 26 µM in each case. Besides, in “Plasma protein binding”, the “Plasma Protein Binding” value is more than 99%. Further, the “Plasma Stability” value in “Plasma stability” is listed as 70%.
As for `O=C(O)Cn1nc(-c2ccccc2)c2ccccc21` [Compound 5309553], the IC50 with C. albicans CaCi-8 and with C. albicans CaCi-2 was more than 26 µM throughout. In addition, the “Plasma Protein Binding” value in “Plasma protein binding” is listed as 97%. Besides, in “Plasma stability”, the “Plasma Stability” value is recorded as more than 99%.
For the compound `COC(=O)Cn1nc(-c2ccccc2)c2cc(OC)ccc21` [Compound 49835837], the IC50 – broadly, the concentration that gives 50% inhibition – is 18.5 µM in the data set on C. albicans CaCi-8 and more than 26 µM in the data set on C. albicans CaCi-2. Moreover, the “Plasma Protein Binding” value in “Plasma protein binding” was “PBS Solubility: <1.0 μM Plasma Protein Binding: <1.0% Plasma Stability: <1.0% Purity (UPLC): >99%”. Also, the “Plasma Stability” value in the data set “Plasma stability” is “PBS Solubility: <1.0 μM Plasma Protein Binding: <1.0% Plasma Stability: <1.0% Purity (UPLC): >99%”.
Take `CC(C)OC(=O)Cn1nc(-c2ccccc2)c2ccccc21` [Compound 49835820]: the IC50 with C. albicans CaCi-8 and with C. albicans CaCi-2 was more than 26 µM in each case. Further, in “Plasma protein binding”, the “Plasma Protein Binding” value is recorded as 99%. In addition, the “Plasma Stability” value in “Plasma stability” was 53%.
On to `COC(=O)Cn1nc(-c2ccccc2)c2cc(Cl)ccc21` [Compound 9551137], for which the figures for the 50% inhibitory concentration (IC50) in the data set with C. albicans CaCi-8 and in the data set on C. albicans CaCi-2 were 9.84 µM and more than 26 µM, respectively. The “Plasma Protein Binding” value in “Plasma protein binding” is listed as more than 99%. Further, in the data set “Plasma stability”, the “Plasma Stability” value is less than 1.0%.
In the case of `c1ccc(-c2nn(Cc3ncco3)c3ccccc23)cc1` [Compound 49835836], the IC50 with C. albicans CaCi-8 is 34.2 ± 7.9 µM; in the data set on C. albicans CaCi-2, more than 26 µM. The “Plasma Protein Binding” value in “Plasma protein binding” is reported as more than 99%. The “Plasma Stability” value in the data set “Plasma stability” is listed as 97%.
For `COC(=O)Cn1nc(-c2ccc(Cl)cc2)c2ccccc21` [Compound 46856253] the same measures were 11.6 µM, more than 26 µM, more than 99% and 6.4%.
Regarding `CC(C)(C)OC(=O)Cn1nc(-c2ccccc2)c2ccccc21` [Compound 49835839], the IC50 with C. albicans CaCi-8 and in the data set on C. albicans CaCi-2 was more than 26 µM throughout. The “Plasma Protein Binding” value in “Plasma protein binding” is listed as more than 99%. For the same compound, in “Plasma stability”, the “Plasma Stability” value is listed as 85%.
On to `O=C(Cn1nc(-c2ccccc2)c2ccccc21)OC1CCC1` [Compound 49835870], for which the IC50 in the data set on C. albicans CaCi-8 and in the data set with C. albicans CaCi-2 was more than 26 µM in each case. Moreover, in the data set “Plasma protein binding”, the “Plasma Protein Binding” value was more than 99%. In addition, the “Plasma Stability” value in the data set “Plasma stability” turned out to be 2.0%.
For the compound `CCCCn1nc(-c2ccccc2)c2ccccc21` [Compound 49835848], the 50% inhibitory concentration (IC50) in the data set on C. albicans CaCi-8 and with C. albicans CaCi-2 was more than 26 µM in each case. For the same compound, the “Plasma Protein Binding” value in the data set “Plasma protein binding” is more than 99%. In addition, the “Plasma Stability” value in the data set “Plasma stability” stood at 81%.
In the case of `COC(=O)Cn1nc(-c2ccccc2)c2ccc(OC)cc21` [Compound 49835812], the IC50 is 12.7 µM in the data set on C. albicans CaCi-8 and more than 26 µM in the data set with C. albicans CaCi-2. Also, the “Plasma Protein Binding” value in “Plasma protein binding” is 38%. Moreover, the “Plasma Stability” value in the data set “Plasma stability” was 1.3%.
